# Test results as given in patent US8217013B2, “Polyene diester antibiotics” (priority 2007, dated 2012).
# Read-outs that look alike come from different tables or passages of the source.
# Tests used:
# Assay in all cases: Test of antibacterial activity in vitro (bacteria-inhibition zone)
# Type in all cases: cell-based
# Candida albicans = settings: for zone of inhibition at 5.6 µg/mL: Candida albicans
# Description: (§1) Test of Antibacterial Activity In Vitro
# (§2) Experiment drugs: the polyene diester compounds prepared by examples 1-12
# (§3) Control drugs: amphotericin B (standard product) • mycostatin (standard product) • natamycin (standard product)
# 2.1 Preparation of Candida albicans suspension: PHARMACOPOEIA OF THE PEOPLES REPUBLIC OF CHINA, second part, 2005 edition, appendix p 81-84.
# (§4) Taking appropriate amount of the above mentioned amphotericin B, mycostatin, natamycin and the polyene diester compounds prepared by examples 1-8 and 10-12, dissolving in a little dimethyl sulfoxide respectively, using pH7 phosphate buffer to dilute into solution which is equivalent to contain amphotericin B, mycostatin, natamycin 280 Units per milliliter, taking 1 ml and using pH7 phosphate buffer to quantitatively dilute into solution which is equivalent to contain amphotericin B 1.4 μg/ml and 2.8 μg/ml, and is equivalent to contain 5.6 μg/ml of mycostatin and natamycin.
# (§5) In addition, preparing the solution according to the same method, adding 40% defibered sheep serum, using pH7 phosphate buffer to quantitatively dilute into unit solution which is equivalent to contain amphotericin B 1.4 μg/ml and 2.8 μg/ml, and is equivalent to contain 5.6 μg/ml of mycostatin and natamycin. Testing according to PHARMACOPOEIA OF THE PEOPLES REPUBLIC OF CHINA, second part, 2005 edition, appendix XIA The Antibiotics Microorganism Test.
# (§6) Medium: Improved Martin Agar Medium, PHARMACOPOEIA OF THE PEOPLES REPUBLIC OF CHINA, second part, 2005 edition, appendix p 84.
# Test method: Double-plate counting method; […] bacteria bed 15 ml to replace the double layers, culture temperature: 37° C., time: 24 h; strain concentration: 1% […]
# Saccharomyces cerevisiae = settings: for zone of inhibition at 5.6 µg/mL: Saccharomyces cerevisiae
# Description: as §1, §2, §3
# 2.2 Preparation of Saccharomyces cerevisiae suspension: PHARMACOPOEIA OF THE PEOPLES REPUBLIC OF CHINA, second part, 2005 edition, appendix p 80, p 83.
# as §4, §5, §6
# (§7) Test method: Double-plate counting method; […] bacteria bed 15 ml to replace the double layers, culture temperature: 37° C., time: 24 h; strain concentration: 1%
# (§8) Medium: Modified Martin Broth Medium
# Candida mycoderma = tested on: Candida mycoderma
# Description: as §1, §2, §3
# 2.3 Preparation of Candida mycoderrna suspension: the method is as same as preparation of Saccharomyces cerevisiae suspension
# as §4, §5, §6, §7, §8
# [1] = 0 h, 5.6 μg/ml after conversion, serum added (40% defibered sheep serum)
# [2] = 6 h, 5.6 μg/ml after conversion, serum added (40% defibered sheep serum)
# [3] = 24 h, 5.6 μg/ml after conversion, serum added (40% defibered sheep serum)
# [4] = 48 h, 5.6 μg/ml after conversion, serum added (40% defibered sheep serum)
# [5] = 0 h, 5.6 μg/ml after conversion, no serum
# [6] = 6 h, 5.6 μg/ml after conversion, no serum
# [7] = 24 h, 5.6 μg/ml after conversion, no serum
# [8] = 48 h, 5.6 μg/ml after conversion, no serum
# [9] = 0 h, 2.8 μg/ml after conversion, no serum
# [10] = 0 h, 2.8 μg/ml after conversion, serum added (40% defibered sheep serum)
# [11] = 6 h, 2.8 μg/ml after conversion, no serum
# [12] = 24 h, 2.8 μg/ml after conversion, no serum
# [13] = 48 h, 2.8 μg/ml after conversion, no serum
compound,measurement,setting,value
"CC1OC(OC2/C=C/C=C/C=C/C=C/CC/C=C/C=C/C(C)[C@@H](O)[C@@H](C)[C@H](C)OC(=O)CC(O)CC(O)CC(O)CCC(O)C(O)C[C@]3(O)CC(O)C(C(=O)O)C(C2)O3)C(O)C(N)C1O (stereo partly drawn) [mycostatin, reference compound]","diameter of the bacteria-inhibition zone, Candida albicans 0 h",Candida albicans; [1],+ (7-9 mm: +)
same,"diameter of the bacteria-inhibition zone, Candida albicans 6 h",Candida albicans; [2],+ (7-9 mm: +)
same,"diameter of the bacteria-inhibition zone, Candida albicans 24 h",Candida albicans; [3],+ (7-9 mm: +)
same,"diameter of the bacteria-inhibition zone, Candida albicans 48 h",Candida albicans; [4],+ (7-9 mm: +)
same,zone of inhibition at 5.6 µg/mL,"Candida albicans; 0 h, 5.6 μg/ml after conversion, no serum, read-out: diameter of the bacteria-inhibition zone, Candida albicans 0 h",7 to 9 mm
same,zone of inhibition at 5.6 µg/mL,"Candida albicans; 6 h, 5.6 μg/ml after conversion, no serum, read-out: diameter of the bacteria-inhibition zone, Candida albicans 6 h",7 to 9 mm
same,zone of inhibition at 5.6 µg/mL,"Candida albicans; 24 h, 5.6 μg/ml after conversion, no serum, read-out: diameter of the bacteria-inhibition zone, Candida albicans 24 h",7 to 9 mm
same,zone of inhibition at 5.6 µg/mL,"Candida albicans; 48 h, 5.6 μg/ml after conversion, no serum, read-out: diameter of the bacteria-inhibition zone, Candida albicans 48 h",7 to 9 mm
same,zone of inhibition at 5.6 µg/mL,"Saccharomyces cerevisiae; 0 h, 5.6 μg/ml after conversion, no serum, read-out: diameter of the bacteria-inhibition zone, Saccharomyces cerevisiae 0 h",14 to 16 mm
same,zone of inhibition at 5.6 µg/mL,"Saccharomyces cerevisiae; 0 h, 5.6 μg/ml after conversion, serum added (40% defibered sheep serum), read-out: diameter of the bacteria-inhibition zone, Saccharomyces cerevisiae 0 h",14 to 16 mm
same,zone of inhibition at 5.6 µg/mL,"Saccharomyces cerevisiae; 6 h, 5.6 μg/ml after conversion, no serum, read-out: diameter of the bacteria-inhibition zone, Saccharomyces cerevisiae 6 h",14 to 16 mm
same,zone of inhibition at 5.6 µg/mL,"Saccharomyces cerevisiae; 6 h, 5.6 μg/ml after conversion, serum added (40% defibered sheep serum), read-out: diameter of the bacteria-inhibition zone, Saccharomyces cerevisiae 6 h",14 to 16 mm
same,zone of inhibition at 5.6 µg/mL,"Saccharomyces cerevisiae; 24 h, 5.6 μg/ml after conversion, no serum, read-out: diameter of the bacteria-inhibition zone, Saccharomyces cerevisiae 24 h",14 to 16 mm
same,zone of inhibition at 5.6 µg/mL,"Saccharomyces cerevisiae; 24 h, 5.6 μg/ml after conversion, serum added (40% defibered sheep serum), read-out: diameter of the bacteria-inhibition zone, Saccharomyces cerevisiae 24 h",14 to 16 mm
same,zone of inhibition at 5.6 µg/mL,"Saccharomyces cerevisiae; 48 h, 5.6 μg/ml after conversion, no serum, read-out: diameter of the bacteria-inhibition zone, Saccharomyces cerevisiae 48 h",14 to 16 mm
same,zone of inhibition at 5.6 µg/mL,"Saccharomyces cerevisiae; 48 h, 5.6 μg/ml after conversion, serum added (40% defibered sheep serum), read-out: diameter of the bacteria-inhibition zone, Saccharomyces cerevisiae 48 h",14 to 16 mm
same,zone of inhibition at 5.6 µg/mL,"Candida mycoderma; 0 h, 5.6 μg/ml after conversion, no serum, read-out: diameter of the bacteria-inhibition zone, Candida mycoderma 0 h",12 to 14 mm
same,zone of inhibition at 5.6 µg/mL,"Candida mycoderma; 6 h, 5.6 μg/ml after conversion, no serum, read-out: diameter of the bacteria-inhibition zone, Candida mycoderma 6 h",12 to 14 mm
same,zone of inhibition at 5.6 µg/mL,"Candida mycoderma; 24 h, 5.6 μg/ml after conversion, no serum, read-out: diameter of the bacteria-inhibition zone, Candida mycoderma 24 h",12 to 14 mm
same,zone of inhibition at 5.6 µg/mL,"Candida mycoderma; 48 h, 5.6 μg/ml after conversion, no serum, read-out: diameter of the bacteria-inhibition zone, Candida mycoderma 48 h",12 to 14 mm
CCOC(=O)OC(C)OC(=O)[C@H]1[C@@H]2C[C@@H](O[C@@H]3OC(C)[C@@H](O)[C@@H](N)[C@H]3O)/C=C/C=C/C=C/C=C/C[C@@H](C)OC(=O)/C=C/[C@H]3O[C@@H]3C[C@H](O)C[C@](O)(C[C@@H]1O)O2 (stereo partly drawn) [natamycin ethoxycarbonyloxyethyl ester],"diameter of the bacteria-inhibition zone, Candida albicans 0 h",Candida albicans; [5],+ (7-9 mm: +)
same,"diameter of the bacteria-inhibition zone, Candida albicans 0 h",Candida albicans; [1],+ (7-9 mm: +)
same,"diameter of the bacteria-inhibition zone, Candida albicans 6 h",Candida albicans; [6],+ (7-9 mm: +)
same,"diameter of the bacteria-inhibition zone, Candida albicans 6 h",Candida albicans; [2],++ (9-12 mm: ++)
same,"diameter of the bacteria-inhibition zone, Candida albicans 24 h",Candida albicans; [7],+ (7-9 mm: +)
same,"diameter of the bacteria-inhibition zone, Candida albicans 24 h",Candida albicans; [3],++ (9-12 mm: ++)
same,"diameter of the bacteria-inhibition zone, Candida albicans 48 h",Candida albicans; [8],+ (7-9 mm: +)
same,"diameter of the bacteria-inhibition zone, Candida albicans 48 h",Candida albicans; [4],++ (9-12 mm: ++)
same,"diameter of the bacteria-inhibition zone, Saccharomyces cerevisiae 0 h",Saccharomyces cerevisiae; [5],+ (7-9 mm: +)
same,"diameter of the bacteria-inhibition zone, Saccharomyces cerevisiae 0 h",Saccharomyces cerevisiae; [1],+ (7-9 mm: +)
same,"diameter of the bacteria-inhibition zone, Saccharomyces cerevisiae 6 h",Saccharomyces cerevisiae; [6],+ (7-9 mm: +)
same,"diameter of the bacteria-inhibition zone, Saccharomyces cerevisiae 6 h",Saccharomyces cerevisiae; [2],++ (9-12 mm: ++)
same,"diameter of the bacteria-inhibition zone, Saccharomyces cerevisiae 24 h",Saccharomyces cerevisiae; [7],+ (7-9 mm: +)
same,"diameter of the bacteria-inhibition zone, Saccharomyces cerevisiae 48 h",Saccharomyces cerevisiae; [8],+ (7-9 mm: +)
same,"diameter of the bacteria-inhibition zone, Candida mycoderma 0 h",Candida mycoderma; [5],+ (7-9 mm: +)
same,"diameter of the bacteria-inhibition zone, Candida mycoderma 0 h",Candida mycoderma; [1],+ (7-9 mm: +)
same,"diameter of the bacteria-inhibition zone, Candida mycoderma 6 h",Candida mycoderma; [6],+ (7-9 mm: +)
same,"diameter of the bacteria-inhibition zone, Candida mycoderma 6 h",Candida mycoderma; [2],++ (9-12 mm: ++)
same,"diameter of the bacteria-inhibition zone, Candida mycoderma 24 h",Candida mycoderma; [7],+ (7-9 mm: +)
same,"diameter of the bacteria-inhibition zone, Candida mycoderma 48 h",Candida mycoderma; [8],+ (7-9 mm: +)
Natamycin methyl pivalate,"diameter of the bacteria-inhibition zone, Candida albicans 0 h",Candida albicans; [5],+ (7-9 mm: +)
same,"diameter of the bacteria-inhibition zone, Candida albicans 0 h",Candida albicans; [1],+ (7-9 mm: +)
same,"diameter of the bacteria-inhibition zone, Candida albicans 6 h",Candida albicans; [6],+ (7-9 mm: +)
same,"diameter of the bacteria-inhibition zone, Candida albicans 6 h",Candida albicans; [2],++ (9-12 mm: ++)
same,"diameter of the bacteria-inhibition zone, Candida albicans 24 h",Candida albicans; [7],+ (7-9 mm: +)
same,"diameter of the bacteria-inhibition zone, Candida albicans 24 h",Candida albicans; [3],++ (9-12 mm: ++)
same,"diameter of the bacteria-inhibition zone, Candida albicans 48 h",Candida albicans; [8],+ (7-9 mm: +)
same,"diameter of the bacteria-inhibition zone, Candida albicans 48 h",Candida albicans; [4],++ (9-12 mm: ++)
same,"diameter of the bacteria-inhibition zone, Saccharomyces cerevisiae 0 h",Saccharomyces cerevisiae; [5],+ (7-9 mm: +)
same,"diameter of the bacteria-inhibition zone, Saccharomyces cerevisiae 0 h",Saccharomyces cerevisiae; [1],+ (7-9 mm: +)
same,"diameter of the bacteria-inhibition zone, Saccharomyces cerevisiae 6 h",Saccharomyces cerevisiae; [6],+ (7-9 mm: +)
same,"diameter of the bacteria-inhibition zone, Saccharomyces cerevisiae 6 h",Saccharomyces cerevisiae; [2],++ (9-12 mm: ++)
same,"diameter of the bacteria-inhibition zone, Saccharomyces cerevisiae 24 h",Saccharomyces cerevisiae; [7],+ (7-9 mm: +)
same,"diameter of the bacteria-inhibition zone, Saccharomyces cerevisiae 48 h",Saccharomyces cerevisiae; [8],+ (7-9 mm: +)
same,"diameter of the bacteria-inhibition zone, Candida mycoderma 0 h",Candida mycoderma; [5],++ (9-12 mm: ++)
same,"diameter of the bacteria-inhibition zone, Candida mycoderma 0 h",Candida mycoderma; [1],++ (9-12 mm: ++)
same,"diameter of the bacteria-inhibition zone, Candida mycoderma 6 h",Candida mycoderma; [6],++ (9-12 mm: ++)
same,"diameter of the bacteria-inhibition zone, Candida mycoderma 24 h",Candida mycoderma; [7],++ (9-12 mm: ++)
same,"diameter of the bacteria-inhibition zone, Candida mycoderma 48 h",Candida mycoderma; [8],++ (9-12 mm: ++)
"amphotericin B-1, 3-2H-3-oxo-1-isobenzofuran ester","diameter of the bacteria-inhibition zone, Candida albicans 0 h",Candida albicans; [9],+ (7-9 mm: +)
same,"diameter of the bacteria-inhibition zone, Candida albicans 0 h",Candida albicans; [10],+ (7-9 mm: +)
same,"diameter of the bacteria-inhibition zone, Candida albicans 6 h",Candida albicans; [11],+ (7-9 mm: +)
same,"diameter of the bacteria-inhibition zone, Candida albicans 6 h","Candida albicans; 6 h, 2.8 μg/ml after conversion, serum added (40% defibered sheep serum)",++ (9-12 mm: ++)
same,"diameter of the bacteria-inhibition zone, Candida albicans 24 h",Candida albicans; [12],+ (7-9 mm: +)
same,"diameter of the bacteria-inhibition zone, Candida albicans 48 h",Candida albicans; [13],+ (7-9 mm: +)
same,"diameter of the bacteria-inhibition zone, Saccharomyces cerevisiae 0 h",Saccharomyces cerevisiae; [9],++ (9-12 mm: ++)
same,"diameter of the bacteria-inhibition zone, Saccharomyces cerevisiae 0 h",Saccharomyces cerevisiae; [10],++ (9-12 mm: ++)
same,"diameter of the bacteria-inhibition zone, Saccharomyces cerevisiae 6 h",Saccharomyces cerevisiae; [11],++ (9-12 mm: ++)
same,"diameter of the bacteria-inhibition zone, Saccharomyces cerevisiae 24 h",Saccharomyces cerevisiae; [12],++ (9-12 mm: ++)
same,"diameter of the bacteria-inhibition zone, Saccharomyces cerevisiae 48 h",Saccharomyces cerevisiae; [13],++ (9-12 mm: ++)
same,"diameter of the bacteria-inhibition zone, Candida mycoderma 0 h",Candida mycoderma; [9],++ (9-12 mm: ++)
same,"diameter of the bacteria-inhibition zone, Candida mycoderma 0 h",Candida mycoderma; [10],++ (9-12 mm: ++)
same,"diameter of the bacteria-inhibition zone, Candida mycoderma 6 h",Candida mycoderma; [11],++ (9-12 mm: ++)
same,"diameter of the bacteria-inhibition zone, Candida mycoderma 24 h",Candida mycoderma; [12],++ (9-12 mm: ++)
same,"diameter of the bacteria-inhibition zone, Candida mycoderma 48 h",Candida mycoderma; [13],++ (9-12 mm: ++)
